Biological target: T1, Tyrosine-protein phosphatase non-receptor type 11 (Homo sapiens, UniProt Q06124)
T1 sequence (Q06124 whole entry): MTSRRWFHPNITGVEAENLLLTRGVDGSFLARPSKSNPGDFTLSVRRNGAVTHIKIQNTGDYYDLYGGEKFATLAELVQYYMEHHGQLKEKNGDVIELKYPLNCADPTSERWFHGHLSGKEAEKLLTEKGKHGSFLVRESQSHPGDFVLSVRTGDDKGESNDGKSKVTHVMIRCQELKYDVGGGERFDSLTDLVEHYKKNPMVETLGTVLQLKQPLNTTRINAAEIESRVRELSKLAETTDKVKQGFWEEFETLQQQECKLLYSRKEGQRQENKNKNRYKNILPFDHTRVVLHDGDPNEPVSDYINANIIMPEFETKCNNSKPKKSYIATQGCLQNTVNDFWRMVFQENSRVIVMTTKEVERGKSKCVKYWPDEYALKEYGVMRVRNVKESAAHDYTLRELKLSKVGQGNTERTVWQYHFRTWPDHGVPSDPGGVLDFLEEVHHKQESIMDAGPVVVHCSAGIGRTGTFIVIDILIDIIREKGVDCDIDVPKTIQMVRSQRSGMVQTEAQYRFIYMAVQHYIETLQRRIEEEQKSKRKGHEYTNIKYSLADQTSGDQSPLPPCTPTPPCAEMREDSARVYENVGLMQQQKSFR
Assay: SHP2 Phosphatase Assay: IC50 values were determined at room temperature in 384-well black polystyrene plate, using a final reaction volume of 15 μl and the following assay buffer conditions: 60 mM Hepes (pH=7.2), 75 mM NaCl, 75 mM KCl, and 1 mM EDTA, 0.05% P-20, 5 mM dithiothreitol (DTT). Full length SHP2 enzyme (diluted to 0.1 nM in reaction buffer) were co-incubated with 1 uM IRS-1 peptide and 0.01 nM to 10 μM compounds of the disclosure for 60 min. The surrogate substrate DiFMUP (5 μL, […]) was added, and incubated at rt for 60 min. The reaction was then quenched by the addition of 5 μL of a 40 μM solution of bpV(Phen). The fluorescence signal was monitored using a microplate reader (Envision, Perkin-Elmer) using excitation and emission wavelengths of 360 nm and 450 nm, respectively. The inhibitor dose-response curves were analyzed using normalized IC50 regression curve fitting with control-based normalization.

IC50: < 50 nM
Structure (SMILES): CC1(CN)CCN(c2ncc(Sc3cccc(NC(=O)c4c(O)nc5cnccn5c4=O)c3Cl)[nH]c2=O)CC1

— ChEMBL document CHEMBL5727557, “SHP2 inhibitors and uses thereof” (2020)
